# Measured values taken from PMC5218480 (PLoS ONE, 2017).
# System: MV-4-11 cells
# Assay: Gene expression microarray analysis (Affymetrix PrimeView) and GSEA
# Assay type: cell-based, human
# Set-up: RFU PODN (11730768_x_at) / Fold change /veh PODN (11730768_x_at) / RFU LINC00158 (11744669_a_at) / Fold change /veh LINC00158 (11744669_a_at) / RFU DUSP10 (11751237_a_at) / Fold change /veh DUSP10 (11751237_a_at) / RFU ID3 (11757404_x_at) / Fold change /veh ID3 (11757404_x_at) / RFU PLEKHG5 (11737974_s_at) / Fold change /veh PLEKHG5 (11737974_s_at) / RFU LRRC4B (11730491_at) / Fold change /veh LRRC4B (11730491_at) / RFU GIMAP4 (11747438_a_at) / Fold change /veh GIMAP4 (11747438_a_at) / RFU KRT8 (11758183_x_at) / Fold change /veh KRT8 (11758183_x_at) / RFU CNN1 (11734310_a_at) / Fold change /veh CNN1 (11734310_a_at) / RFU VPS37D (11726825_at) / Fold change /veh VPS37D (11726825_at) / RFU C10orf10 (11716522_x_at) / Fold change /veh C10orf10 (11716522_x_at) / RFU KIR2DL2 /// KIR2DL4 /// KIR2DL5A /// KIR2DL5B /// KIR2DS1 /// KIR2DS2 /// KIR2DS3 /// KIR2DS4 /// KIR3DL3 /// KIR3DL3 /// KIR3DS1 (11738374_at) / Fold change /veh KIR2DL2 /// KIR2DL4 /// KIR2DL5A /// KIR2DL5B /// KIR2DS1 /// KIR2DS2 /// KIR2DS3 /// KIR2DS4 /// KIR3DL3 /// KIR3DL3 /// KIR3DS1 (11738374_at) / RFU C1QL1 (11718748_at) / Fold change /veh C1QL1 (11718748_at) / RFU TMPRSS4 (11747572_a_at) / Fold change /veh TMPRSS4 (11747572_a_at) / RFU HAMP (11756126_x_at) / Fold change /veh HAMP (11756126_x_at) / RFU RNFT2 (11725882_a_at) / Fold change /veh RNFT2 (11725882_a_at) / RFU NR4A2 (11747474_a_at) / Fold change /veh NR4A2 (11747474_a_at) / RFU ABCC12 (11746883_a_at) / Fold change /veh ABCC12 (11746883_a_at) / RFU TMEM136 (11760407_x_at) / Fold change /veh TMEM136 (11760407_x_at) / RFU CLDN22 /// WWC2 (11732394_at) / Fold change /veh CLDN22 /// WWC2 (11732394_at) / RFU HLA-DPB1 (11760878_x_at) / Fold change /veh HLA-DPB1 (11760878_x_at) / RFU SPINT1 (11716480_a_at) / Fold change /veh SPINT1 (11716480_a_at) / RFU GAP43 (11754022_s_at) / Fold change /veh GAP43 (11754022_s_at) / RFU A4GNT (11735810_at) / Fold change /veh A4GNT (11735810_at) / RFU PRB3 (11715151_x_at) / Fold change /veh PRB3 (11715151_x_at) / RFU TUBB4B (11761932_at) / Fold change /veh TUBB4B (11761932_at) / RFU CAPN14 (11732068_a_at) / Fold change /veh CAPN14 (11732068_a_at) / RFU TMCC2 (11721928_a_at) / Fold change /veh TMCC2 (11721928_a_at) / RFU IRGQ (11745062_a_at) / Fold change /veh IRGQ (11745062_a_at) / RFU FAM174B (11720279_a_at) / Fold change /veh FAM174B (11720279_a_at) / RFU TMPRSS4 (11748680_a_at) / Fold change /veh TMPRSS4 (11748680_a_at) / RFU FAM212B (11763350_a_at) / Fold change /veh FAM212B (11763350_a_at) / RFU PLEKHG5 (11743358_a_at) / Fold change /veh PLEKHG5 (11743358_a_at) / RFU ZSCAN30 (11745921_a_at) / Fold change /veh ZSCAN30 (11745921_a_at) / RFU CMKLR1 (11741424_a_at) / Fold change /veh CMKLR1 (11741424_a_at) / RFU LOC101060620 /// MAPK8IP1 (11723275_at) / Fold change /veh LOC101060620 /// MAPK8IP1 (11723275_at) / RFU SPTSSB (11747773_x_at) / Fold change /veh SPTSSB (11747773_x_at) / RFU PRSS12 (11739890_at) / Fold change /veh PRSS12 (11739890_at) / RFU BIN1 (11741810_x_at) / Fold change /veh BIN1 (11741810_x_at) / RFU WNT11 (11732464_a_at) / Fold change /veh WNT11 (11732464_a_at) / RFU C10orf10 (11716521_a_at) / Fold change /veh C10orf10 (11716521_a_at) / RFU C5orf56 (11738089_at) / Fold change /veh C5orf56 (11738089_at) / RFU CYB561 (11721691_x_at) / Fold change /veh CYB561 (11721691_x_at) / RFU ANKRD19P (11752326_a_at) / Fold change /veh ANKRD19P (11752326_a_at) / RFU OR2T12 /// OR2T33 /// OR2T8 (11738714_s_at) / Fold change /veh OR2T12 /// OR2T33 /// OR2T8 (11738714_s_at) / RFU VCAN (11748164_a_at) / Fold change /veh VCAN (11748164_a_at) / RFU JSRP1 (11732532_at) / Fold change /veh JSRP1 (11732532_at) / RFU KRTAP10-11 (11738290_x_at) / Fold change /veh KRTAP10-11 (11738290_x_at) / RFU MYO3A (11730013_a_at) / Fold change /veh MYO3A (11730013_a_at) / RFU EBF3 (11725865_a_at) / Fold change /veh EBF3 (11725865_a_at) / RFU CAMK2N1 (11719241_x_at) / Fold change /veh CAMK2N1 (11719241_x_at) / RFU C5orf56 (11738088_a_at) / Fold change /veh C5orf56 (11738088_a_at) / RFU OLFML3 (11715873_a_at) / Fold change /veh OLFML3 (11715873_a_at) / RFU LOC100653217 /// NTM (11731650_a_at) / Fold change /veh LOC100653217 /// NTM (11731650_a_at) / RFU MAPK11 (11762145_a_at) / Fold change /veh MAPK11 (11762145_a_at) / RFU FIZ1 (11724087_x_at) / Fold change /veh FIZ1 (11724087_x_at) / RFU OASL (11726364_x_at) / Fold change /veh OASL (11726364_x_at) / RFU SOX15 (11748057_x_at) / Fold change /veh SOX15 (11748057_x_at) / RFU CD79A (11719716_a_at) / Fold change /veh CD79A (11719716_a_at) / RFU HIST1H1D (11736915_at) / Fold change /veh HIST1H1D (11736915_at) / RFU CASKIN2 (11723855_a_at) / Fold change /veh CASKIN2 (11723855_a_at) / RFU LOC730098 (11760151_x_at) / Fold change /veh LOC730098 (11760151_x_at) / RFU OR4N2 (11742367_at) / Fold change /veh OR4N2 (11742367_at) / RFU PRRT2 (11749266_a_at) / Fold change /veh PRRT2 (11749266_a_at) / RFU SNX32 (11753110_a_at) / Fold change /veh SNX32 (11753110_a_at) / RFU CDHR5 (11726645_a_at) / Fold change /veh CDHR5 (11726645_a_at) / RFU RCAN1 (11760418_a_at) / Fold change /veh RCAN1 (11760418_a_at) / RFU FAM167A (11723789_a_at) / Fold change /veh FAM167A (11723789_a_at) / RFU FAM26E (11764081_at) / Fold change /veh FAM26E (11764081_at) / RFU ISYNA1 (11749810_s_at) / Fold change /veh ISYNA1 (11749810_s_at) / RFU ACY1 (11761880_at) / Fold change /veh ACY1 (11761880_at) / RFU 11764098_at / Fold change /veh 11764098_at / RFU SAMD14 (11745864_x_at) / Fold change /veh SAMD14 (11745864_x_at) / RFU NPB (11741838_a_at) / Fold change /veh NPB (11741838_a_at) / RFU TMPRSS6 (11731388_a_at) / Fold change /veh TMPRSS6 (11731388_a_at) / RFU KRTAP10-2 (11738614_at) / Fold change /veh KRTAP10-2 (11738614_at) / RFU ARHGAP8 /// PRR5-ARHGAP8 (11727945_x_at) / Fold change /veh ARHGAP8 /// PRR5-ARHGAP8 (11727945_x_at) / RFU KRTAP5-7 /// NADSYN1 (11734609_at) / Fold change /veh KRTAP5-7 /// NADSYN1 (11734609_at) / RFU RASL12 (11751679_a_at) / Fold change /veh RASL12 (11751679_a_at) / RFU CDKN2B (11736163_a_at) / Fold change /veh CDKN2B (11736163_a_at) / RFU PRF1 (11729649_at) / Fold change /veh PRF1 (11729649_at) / RFU, ZNF638 /// ZNF638-IT1 / Fold change vs veh, ZNF638 /// ZNF638-IT1 / RFU, PANK3 / Fold change vs veh, PANK3 / RFU, SH3YL1 / Fold change vs veh, SH3YL1 / RFU, ZEB2 / Fold change vs veh, ZEB2 / RFU, NRIP1 / Fold change vs veh, NRIP1 / RFU, PTTG1IP / Fold change vs veh, PTTG1IP / RFU, CAPN2 / Fold change vs veh, CAPN2 / RFU, MED14 / Fold change vs veh, MED14 / RFU, SNORA58 / Fold change vs veh, SNORA58 / RFU, C1orf63 / Fold change vs veh, C1orf63 / RFU, LRRFIP1 / Fold change vs veh, LRRFIP1 / RFU, NDUFAF7 / Fold change vs veh, NDUFAF7 / RFU, SLC12A2 / Fold change vs veh, SLC12A2 / RFU, IBTK / Fold change vs veh, IBTK / RFU, ESF1 / Fold change vs veh, ESF1 / Fold change vs veh, TMEM50B / RFU, TAOK1 / Fold change vs veh, TAOK1 / RFU, ACBD3 / Fold change vs veh, ACBD3 / RFU, TMA16 / Fold change vs veh, TMA16 / RFU, RWDD3 / Fold change vs veh, RWDD3 / RFU, BCAT1 / Fold change vs veh, BCAT1 / RFU, EDEM3 / Fold change vs veh, EDEM3 / RFU, TMEM33 / Fold change vs veh, TMEM33 / RFU, WDR75 / Fold change vs veh, WDR75 / RFU, AHCTF1 / Fold change vs veh, AHCTF1 / RFU, TFRC / Fold change vs veh, TFRC / RFU, ZDHHC17 / Fold change vs veh, ZDHHC17 / RFU, NOM1 / Fold change vs veh, NOM1 / RFU, ARL8B / Fold change vs veh, ARL8B / RFU, ZBTB11 / Fold change vs veh, ZBTB11 / RFU, TAMM41 / Fold change vs veh, TAMM41 / RFU, KIAA1704 /// LOC100996395 / Fold change vs veh, KIAA1704 /// LOC100996395 / RFU, ING1 / Fold change vs veh, ING1 / RFU, TRMT61B / Fold change vs veh, TRMT61B / RFU, FUBP3 / Fold change vs veh, FUBP3 / RFU, TP53 / Fold change vs veh, TP53 / RFU, TNKS2 / Fold change vs veh, TNKS2 / RFU, ZFP14 / Fold change vs veh, ZFP14 / RFU, ACTR2 / Fold change vs veh, ACTR2 / RFU, PPP3R1 / Fold change vs veh, PPP3R1 / RFU, PIK3R1 / Fold change vs veh, PIK3R1 / RFU, HNRNPA1 / Fold change vs veh, HNRNPA1 / RFU, RNF170 / Fold change vs veh, RNF170 / RFU, ZNF28 / Fold change vs veh, ZNF28 / RFU, RNGTT / Fold change vs veh, RNGTT / RFU, OGT / Fold change vs veh, OGT / RFU, BRD1 / Fold change vs veh, BRD1 / RFU, MARS / Fold change vs veh, MARS / RFU, ZNF655 / Fold change vs veh, ZNF655 / RFU, FAHD1 / Fold change vs veh, FAHD1 / RFU, BDP1 / Fold change vs veh, BDP1 / RFU, LRRCC1 / Fold change vs veh, LRRCC1 / RFU, ARID1A / Fold change vs veh, ARID1A / RFU, ZNF146 / Fold change vs veh, ZNF146 / RFU, ZNF330 / Fold change vs veh, ZNF330 / RFU, GPN3 / Fold change vs veh, GPN3 / RFU, C9orf123 / Fold change vs veh, C9orf123 / RFU, N4BP2L2 / Fold change vs veh, N4BP2L2 / RFU, ARFIP1 / Fold change vs veh, ARFIP1 / RFU, FAM179B / Fold change vs veh, FAM179B / RFU, BCL10 / Fold change vs veh, BCL10 / RFU, UHRF1BP1L / Fold change vs veh, UHRF1BP1L / RFU, BET1 / Fold change vs veh, BET1 / RFU, CNOT2 / Fold change vs veh, CNOT2 / RFU, ZNF268 / Fold change vs veh, ZNF268 / Fold change vs veh, ZNF507 / RFU, DGCR2 / Fold change vs veh, DGCR2 / RFU, WDSUB1 / Fold change vs veh, WDSUB1 / Fold change vs veh, HSP90B1 /// MIR3652 / RFU, ADSS / Fold change vs veh, ADSS / RFU, GK / Fold change vs veh, GK / RFU, ZNF148 / Fold change vs veh, ZNF148 / RFU, TAF9 / Fold change vs veh, TAF9 / RFU, SLC1A5 / Fold change vs veh, SLC1A5 / RFU, SLMO2 / Fold change vs veh, SLMO2 / RFU, ABCC4 / Fold change vs veh, ABCC4 / RFU, LOC101060439 /// RAP1B / Fold change vs veh, LOC101060439 /// RAP1B / RFU, RFX7 / Fold change vs veh, RFX7 / RFU, GTPBP10 / Fold change vs veh, GTPBP10 / RFU, CNEP1R1 / Fold change vs veh, CNEP1R1 / RFU, BIVM-ERCC5 /// ERCC5 / Fold change vs veh, BIVM-ERCC5 /// ERCC5 / RFU, ILF3 / Fold change vs veh, ILF3 / RFU 11762660_at / Fold change /veh 11762660_at / RFU VCAN (11757783_s_at) / Fold change /veh VCAN (11757783_s_at) / RFU DDX43 (11728927_at) / Fold change /veh DDX43 (11728927_at) / RFU KRT8 (11758188_x_at) / Fold change /veh KRT8 (11758188_x_at) / RFU NKD1 (11759106_at) / Fold change /veh NKD1 (11759106_at) / RFU SRD5A1 (11742802_a_at) / Fold change /veh SRD5A1 (11742802_a_at) / RFU TPSAB1 /// TPSB2 (11721975_s_at) / Fold change /veh TPSAB1 /// TPSB2 (11721975_s_at) / RFU GSTM3 (11746129_a_at) / Fold change /veh GSTM3 (11746129_a_at) / RFU IL23R (11737362_x_at) / Fold change /veh IL23R (11737362_x_at) / RFU TMEM51 (11727254_a_at) / Fold change /veh TMEM51 (11727254_a_at) / RFU PIWIL2 (11732686_x_at) / Fold change /veh PIWIL2 (11732686_x_at) / RFU ORM1 (11744905_x_at) / Fold change /veh ORM1 (11744905_x_at) / RFU CCDC152 (11743942_at) / Fold change /veh CCDC152 (11743942_at) / RFU ECM1 (11717891_a_at) / Fold change /veh ECM1 (11717891_a_at) / RFU IL23R (11748794_a_at) / Fold change /veh IL23R (11748794_a_at) / RFU TNFAIP8L3 (11732012_x_at) / Fold change /veh TNFAIP8L3 (11732012_x_at) / RFU MBOAT4 (11741988_at) / Fold change /veh MBOAT4 (11741988_at) / RFU 11764193_at / Fold change /veh 11764193_at / RFU TMEM53 (11763286_at) / Fold change /veh TMEM53 (11763286_at) / RFU MAGEB2 (11727129_at) / Fold change /veh MAGEB2 (11727129_at) / RFU TMEM200A (11744735_a_at) / Fold change /veh TMEM200A (11744735_a_at) / RFU CCDC152 (11751479_a_at) / Fold change /veh CCDC152 (11751479_a_at) / RFU FAM211A (11726209_a_at) / Fold change /veh FAM211A (11726209_a_at) / RFU RGS16 (11746705_a_at) / Fold change /veh RGS16 (11746705_a_at) / RFU VCAN (11755009_s_at) / Fold change /veh VCAN (11755009_s_at) / RFU RHOB (11743442_s_at) / Fold change /veh RHOB (11743442_s_at) / RFU RGS16 (11720943_a_at) / Fold change /veh RGS16 (11720943_a_at) / RFU RGS16 (11720944_at) / Fold change /veh RGS16 (11720944_at) / RFU, VPS4B / Fold change vs veh, VPS4B / RFU, CREB1 / Fold change vs veh, CREB1 / RFU, DNAJC13 / Fold change vs veh, DNAJC13 / RFU, GNAQ / Fold change vs veh, GNAQ / RFU, CDK5R1 / Fold change vs veh, CDK5R1 / RFU, ZRANB3 / Fold change vs veh, ZRANB3 / RFU, CUL4A / Fold change vs veh, CUL4A / RFU, CCNY / Fold change vs veh, CCNY / RFU, UFL1 / Fold change vs veh, UFL1 / RFU, COG3 / Fold change vs veh, COG3 / RFU, DIAPH2 / Fold change vs veh, DIAPH2 / RFU, SKA2 / Fold change vs veh, SKA2 / RFU, AFF3 / Fold change vs veh, AFF3 / RFU, LMF1 / Fold change vs veh, LMF1 / RFU, IPO11 / Fold change vs veh, IPO11 / RFU, DFFB / Fold change vs veh, DFFB / RFU, FOXP1 / Fold change vs veh, FOXP1 / RFU, CARD8 / Fold change vs veh, CARD8 / RFU, STRN3 / Fold change vs veh, STRN3 / RFU, ADK / Fold change vs veh, ADK / RFU, RASSF2 / Fold change vs veh, RASSF2 / RFU, WIPF1 / Fold change vs veh, WIPF1 / RFU, LARP1B / Fold change vs veh, LARP1B / RFU, RASA1 / Fold change vs veh, RASA1 / RFU, RB1 / Fold change vs veh, RB1 / RFU, PPFIA1 / Fold change vs veh, PPFIA1 / RFU, MAT2A / Fold change vs veh, MAT2A / RFU, CCT5 / Fold change vs veh, CCT5 / RFU, WDR92 / Fold change vs veh, WDR92 / RFU, CUX1 / Fold change vs veh, CUX1 / RFU, TTC7A / Fold change vs veh, TTC7A / RFU, TMEM135 / Fold change vs veh, TMEM135 / RFU, DEPTOR / Fold change vs veh, DEPTOR / RFU, CPM / Fold change vs veh, CPM / RFU, DNAJB6 / Fold change vs veh, DNAJB6 / RFU, CACNA2D3 / Fold change vs veh, CACNA2D3 / RFU, DTX4 / Fold change vs veh, DTX4 / RFU, TFCP2 / Fold change vs veh, TFCP2 / RFU, GMCL1 /// GMCL1P1 / Fold change vs veh, GMCL1 /// GMCL1P1 / RFU, AEBP2 / Fold change vs veh, AEBP2 / RFU, SNHG1 /// SNORD22 /// SNORD25 /// SNORD26 /// SNORD27 /// SNORD28 /// SNORD29 /// SNORD31 / Fold change vs veh, SNHG1 /// SNORD22 /// SNORD25 /// SNORD26 /// SNORD27 /// SNORD28 /// SNORD29 /// SNORD31 / Fold change (Aza/veh), C12orf56 (ProbeSet 11735607_a_at) / Fold change (ACY-1035/veh), C12orf56 (ProbeSet 11735607_a_at) / Fold change (Aza/veh), FGFR1OP (ProbeSet 11751329_s_at) / Fold change (ACY-1035/veh), FGFR1OP (ProbeSet 11751329_s_at) / Fold change (Aza/veh), VPS36 (ProbeSet 11739960_a_at) / Fold change (ACY-1035/veh), VPS36 (ProbeSet 11739960_a_at) / RFU SYPL1 (11715823_x_at) / Fold change /veh SYPL1 (11715823_x_at) / RFU IGFBP7 (11715501_s_at) / Fold change /veh IGFBP7 (11715501_s_at) / RFU REEP3 (11722064_at) / Fold change /veh REEP3 (11722064_at) / RFU IGLL1 (11728026_x_at) / Fold change /veh IGLL1 (11728026_x_at): dose or concentration left out as unconfirmed
# Details: ProbeSet 11743567_s_at; LIST B
structure (smiles),measurement,value
Nc1ncn([C@@H]2O[C@H](CO)[C@@H](O)[C@H]2O)c(=O)n1 [azacitidine],"RFU, ACBD3",255.44 RFU
